Laboratory results from US20050020646A1, “Treatment of BPH” (Pfizer Inc., priority 2003, published 2005).

Tests used:
[1] = system: bladder of normal rats; settings: cited from earlier work
[2] = system: rat spinal cord injury model of overactive bladder; settings: cited from earlier work
[3] = system: bladder function of wild type (WT) and EP1 knockout (EP1KO) mice; assay: Cystometry in conscious mice under intravesical instillation of PGE2; assay type: in vivo, mouse; settings: intravesical instillation of PGE2 (20 μM)
Method: Animals: Age-matched female EP1 knockout (EP1KO) mice (DBA/1LacJ background) (n=13) and DBA/1LacJ wild type (WT) controls (n=12) were used for the studies. The knockout mice originated from Groton Laboratories, Pfizer Research and Development, the wild type from the Jackson Laboratories, USA. Both strains were delivered through Charles River Laboratories, UK. After arrival, the mice were housed for 6 weeks under identical conditions under a 12 hours light/dark photocycle, food and water were provided ad libitum. The experimental protocol was approved by the Animals Ethics Committee, Lund University.
The knockout and WT mice were randomly divided into 3 groups each. One third received bladder outlet obstruction (BOO) as described below, one third received sham surgery. The remaining mice served as unoperated controls.
At day 5 after the obstruction a polyethylene catheter (PE, ID 0.38 mm, OD 0.61 mm) with a small cuff was inserted in the bladder dome and secured with a purse-string suture (7-0 silk). The obstructing ligature remained in place. The catheter was tunneled subcutaneously, led out on the back of the neck, and surgically secured. Control animals received the bladder catheter 2 days prior to cystometry.
Cystometry: Two days after insertion of the catheter (7 days after creation of the obstruction), the cystometric investigation was performed without any anesthesia or restraint. The mice were placed into a metabolic cage (Gazzada, Buguggiatade, Italy). The bladder catheter was connected to a pressure transducer, which in turn was connected to a Grass® 7E Polygraph recorder. The bladder was continuously filled with saline at room temperature by means of a microinjecton pump (CMA 100, Carnegie Medicine, Solna, Sweden), at a filling speed of 25 μl/min.
The amount of voided urine was measured by means of a fluid collector, connected to a force displacement transducer (FT 03 D; Grass instrument Co., MA, USA). After a stabilization period of 60-80 minutes, in which the bladder was continuously filled, reproducible voiding patterns were achieved and recorded over a period of 30 minutes. The following parameters were measured: Micturition interval (time between 2 voids), baseline pressure (lowest pressure between 2 voids), threshold pressure (pressure immediately before micturition was initiated), micturition pressure (maximum voiding pressure), and micturition volume. Residual urine was emptied manually 3 times at the end of the cystometry and measured. Bladder capacity was calculated as the amount of saline infused into the bladder between 2 voids, plus the average amount of residual urine.
The animals were continuously observed in order to distinguish between moving artifacts and non-voiding bladder contractions. The surface of the collecting-funnel under the grid of the metabolic cage was sprayed with a thin layer of silicone.
Drugs and solutions: PGE2 (Sigma Chemical Company, St. Louis, Mo., USA). PGE2 was dissolved in ethanol, and the stock solution was stored at a concentration of 10^−2 M at −70°. The final dilution of 20 μM was made in NaCl at the day of cystometry. (Normal Krebs solution was composed as following (mM): NaCl 119, KCl 4.6, CaCl2 1.5, MgCl2 1.2, NaHCO3 15, NaH2PO4 1.2, and glucose 11).
Data analysis: All values are reported as the mean±SEM. Statistical significance was determined by Student's t-test and Bonferroni correction as appropriate. P<0.05 was required for statistical significance.

[4] = system: human bladder; settings: human volunteers, intravesical administration; cited from earlier work
[5] = system: rat bladder; settings: rats, topical administration; cited from earlier work

CC(=O)NNC(=O)N1Cc2ccccc2Oc2ccc(Cl)cc21 [SC-19220]
bladder capacity [1]: increased bladder capacity

Cc1cc(Cl)ccc1S(=O)(=O)NC[C@H]1C2CCC(CC2)[C@@H]1/C=C\CCCC(=O)O [ONO-8711]
bladder overactivity [2]: reduction in bladder overactivity

CCCCC[C@H](O)/C=C/[C@H]1[C@H](O)CC(=O)[C@@H]1C/C=C\CCCC(=O)O [PGE2, prostaglandin E2]
bladder capacity ([3]; EP1 KO control mice): no effect
induction of non-voiding contractions ([3]; EP1 KO control mice): no induction of non-voiding contractions
micturition interval ([3]; EP1 KO control mice): no effect
micturition volume ([3]; EP1 KO control mice): no effect
bladder capacity ([3]; WT control mice): decreased
micturition interval ([3]; WT control mice): decreased
micturition volume ([3]; WT control mice): decreased
non-voiding contractions ([3]; WT control mice): Frequent non-voiding contractions of high amplitude occurred
bladder capacity [4]: decreased bladder capacity
sensations of urgency [4]: gave rise to sensations of urgency
bladder activity and reflex micturition [5]: bladder hyperactivity and stimulation of reflex micturition
